Experimental data published in ChEMBL document CHEMBL1201862, “PubChem BioAssay data set” (2004).
One block for each compound: values may come before it. Calls of active or inactive are those of the source.

Assays:
Cytochrome P450 2D6 = Cytochrome P450 2D6 (Homo sapiens, UniProt P10635);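 note: CYP2D6 member of a cytochrome P450 panel assay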
Cytochrome P450 2C19 = Cytochrome P450 2C19 (Homo sapiens, UniProt P33261); assay: Cytochrome panel assay with activity outcomes. Panel member name: p450-cyp2c19 Compounds with AC50 equal or less than 10 uM are considered active; assay type: functional; details: read-out: AC50
Cytochrome P450 2C9 = Cytochrome P450 2C9 (Homo sapiens, UniProt P11712)
Sequence of Cytochrome P450 2C9 (P11712 whole entry): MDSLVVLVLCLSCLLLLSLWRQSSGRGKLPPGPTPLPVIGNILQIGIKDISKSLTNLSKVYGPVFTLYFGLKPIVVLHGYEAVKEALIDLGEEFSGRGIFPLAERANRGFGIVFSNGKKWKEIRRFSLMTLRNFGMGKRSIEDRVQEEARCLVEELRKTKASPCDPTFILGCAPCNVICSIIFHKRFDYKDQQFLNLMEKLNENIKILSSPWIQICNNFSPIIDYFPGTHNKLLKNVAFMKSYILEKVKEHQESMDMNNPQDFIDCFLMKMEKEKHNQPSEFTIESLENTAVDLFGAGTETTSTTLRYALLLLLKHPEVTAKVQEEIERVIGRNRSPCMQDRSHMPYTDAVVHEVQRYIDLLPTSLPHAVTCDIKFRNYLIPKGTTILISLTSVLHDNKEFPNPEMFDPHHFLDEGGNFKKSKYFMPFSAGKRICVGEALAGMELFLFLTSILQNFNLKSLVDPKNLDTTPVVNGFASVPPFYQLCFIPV

[1] = target: T1, Voltage-gated N-type calcium channel alpha-1B subunit/Amyloid beta A4 precursor protein-binding family A member 1 (Homo sapiens, UniProt Q00975+Q02410); assay type: protein assay
T1 sequence (Q00975 whole entry): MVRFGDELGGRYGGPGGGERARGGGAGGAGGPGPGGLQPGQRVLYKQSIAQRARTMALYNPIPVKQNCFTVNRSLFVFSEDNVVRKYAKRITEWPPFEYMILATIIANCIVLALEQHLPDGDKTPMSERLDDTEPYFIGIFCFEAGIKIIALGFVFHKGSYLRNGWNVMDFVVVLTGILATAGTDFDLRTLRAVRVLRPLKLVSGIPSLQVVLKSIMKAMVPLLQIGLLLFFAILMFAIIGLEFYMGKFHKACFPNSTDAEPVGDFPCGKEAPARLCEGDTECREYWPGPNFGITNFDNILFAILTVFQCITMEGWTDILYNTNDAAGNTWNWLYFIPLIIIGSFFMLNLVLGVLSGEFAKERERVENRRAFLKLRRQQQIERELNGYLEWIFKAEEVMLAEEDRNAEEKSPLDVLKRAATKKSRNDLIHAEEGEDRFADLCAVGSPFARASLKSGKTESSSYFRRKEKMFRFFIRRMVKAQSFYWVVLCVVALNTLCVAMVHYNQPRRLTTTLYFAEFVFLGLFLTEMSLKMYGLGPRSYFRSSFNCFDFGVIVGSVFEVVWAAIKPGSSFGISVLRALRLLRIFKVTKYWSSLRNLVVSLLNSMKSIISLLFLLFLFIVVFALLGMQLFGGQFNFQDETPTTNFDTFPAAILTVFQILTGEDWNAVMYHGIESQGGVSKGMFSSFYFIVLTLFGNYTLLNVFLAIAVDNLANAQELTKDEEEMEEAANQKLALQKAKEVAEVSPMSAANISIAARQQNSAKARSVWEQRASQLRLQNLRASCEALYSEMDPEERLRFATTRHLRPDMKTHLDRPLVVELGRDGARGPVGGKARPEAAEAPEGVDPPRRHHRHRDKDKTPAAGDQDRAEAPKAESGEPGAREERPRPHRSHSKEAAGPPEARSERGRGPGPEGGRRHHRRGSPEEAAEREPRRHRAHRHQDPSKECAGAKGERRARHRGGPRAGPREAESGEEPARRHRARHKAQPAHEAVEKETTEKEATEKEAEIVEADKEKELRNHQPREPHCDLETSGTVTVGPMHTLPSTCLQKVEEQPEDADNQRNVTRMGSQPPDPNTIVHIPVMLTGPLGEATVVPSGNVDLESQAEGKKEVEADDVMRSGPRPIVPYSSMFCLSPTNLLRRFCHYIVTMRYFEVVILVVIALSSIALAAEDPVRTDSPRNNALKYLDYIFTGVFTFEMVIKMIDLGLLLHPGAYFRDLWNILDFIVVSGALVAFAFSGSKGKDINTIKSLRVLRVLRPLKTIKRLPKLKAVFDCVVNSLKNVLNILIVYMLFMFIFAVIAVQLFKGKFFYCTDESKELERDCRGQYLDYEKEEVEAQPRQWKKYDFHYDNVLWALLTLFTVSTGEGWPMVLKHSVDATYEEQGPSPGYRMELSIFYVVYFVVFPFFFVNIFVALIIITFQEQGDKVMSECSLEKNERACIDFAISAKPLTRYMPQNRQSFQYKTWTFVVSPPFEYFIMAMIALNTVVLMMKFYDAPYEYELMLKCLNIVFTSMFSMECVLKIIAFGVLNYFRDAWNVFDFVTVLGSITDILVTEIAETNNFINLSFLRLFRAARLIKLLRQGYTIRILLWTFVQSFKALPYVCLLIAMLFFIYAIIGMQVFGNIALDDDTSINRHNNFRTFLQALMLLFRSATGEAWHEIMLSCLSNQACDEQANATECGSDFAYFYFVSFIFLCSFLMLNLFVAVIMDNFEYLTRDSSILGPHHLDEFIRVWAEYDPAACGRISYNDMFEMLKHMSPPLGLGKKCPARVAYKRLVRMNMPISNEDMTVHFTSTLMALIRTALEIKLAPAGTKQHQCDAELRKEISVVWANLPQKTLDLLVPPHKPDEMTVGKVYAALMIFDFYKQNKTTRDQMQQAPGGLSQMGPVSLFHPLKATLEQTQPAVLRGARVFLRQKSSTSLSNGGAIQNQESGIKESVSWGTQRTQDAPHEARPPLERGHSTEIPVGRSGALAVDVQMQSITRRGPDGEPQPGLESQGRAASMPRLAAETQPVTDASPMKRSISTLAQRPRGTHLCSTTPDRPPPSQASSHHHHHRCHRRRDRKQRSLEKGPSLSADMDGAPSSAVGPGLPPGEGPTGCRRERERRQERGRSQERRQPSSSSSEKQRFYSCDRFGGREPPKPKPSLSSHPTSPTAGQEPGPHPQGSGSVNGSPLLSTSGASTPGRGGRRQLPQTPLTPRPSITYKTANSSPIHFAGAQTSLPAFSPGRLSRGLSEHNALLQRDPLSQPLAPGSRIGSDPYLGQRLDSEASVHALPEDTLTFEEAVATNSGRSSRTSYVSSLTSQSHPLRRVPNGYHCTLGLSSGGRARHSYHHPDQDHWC
T1 sequence (Q02410 whole entry): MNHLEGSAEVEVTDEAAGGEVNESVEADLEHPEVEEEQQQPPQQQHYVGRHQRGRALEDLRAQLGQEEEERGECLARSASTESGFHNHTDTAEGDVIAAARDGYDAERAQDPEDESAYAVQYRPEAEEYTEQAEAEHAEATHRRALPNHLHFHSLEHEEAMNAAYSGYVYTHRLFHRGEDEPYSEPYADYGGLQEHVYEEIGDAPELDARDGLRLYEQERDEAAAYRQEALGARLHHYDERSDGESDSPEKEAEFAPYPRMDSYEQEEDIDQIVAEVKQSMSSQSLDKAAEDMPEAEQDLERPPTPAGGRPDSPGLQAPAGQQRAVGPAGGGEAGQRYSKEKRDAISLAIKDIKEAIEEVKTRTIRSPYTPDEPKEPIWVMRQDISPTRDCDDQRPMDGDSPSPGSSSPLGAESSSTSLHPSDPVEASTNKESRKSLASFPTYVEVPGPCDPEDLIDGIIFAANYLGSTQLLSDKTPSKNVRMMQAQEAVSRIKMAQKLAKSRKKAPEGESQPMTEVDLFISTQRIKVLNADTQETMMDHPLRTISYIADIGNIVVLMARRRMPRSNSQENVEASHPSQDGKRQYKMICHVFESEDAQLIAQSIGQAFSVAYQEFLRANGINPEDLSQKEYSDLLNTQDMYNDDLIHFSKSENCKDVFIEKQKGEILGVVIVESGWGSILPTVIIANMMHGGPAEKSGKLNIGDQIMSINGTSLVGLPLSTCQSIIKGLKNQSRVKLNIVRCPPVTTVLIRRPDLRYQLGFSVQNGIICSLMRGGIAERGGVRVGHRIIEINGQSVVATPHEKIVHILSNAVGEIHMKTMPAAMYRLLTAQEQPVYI

[2] = target: DNA dC->dU-editing enzyme APOBEC-3A (Homo sapiens, UniProt P31941); assay: APOBEC3A DNA deaminase inhibitors, dose response, biochemical (AID 504722); assay type: functional
Sequence of DNA dC->dU-editing enzyme APOBEC-3A (P31941 whole entry): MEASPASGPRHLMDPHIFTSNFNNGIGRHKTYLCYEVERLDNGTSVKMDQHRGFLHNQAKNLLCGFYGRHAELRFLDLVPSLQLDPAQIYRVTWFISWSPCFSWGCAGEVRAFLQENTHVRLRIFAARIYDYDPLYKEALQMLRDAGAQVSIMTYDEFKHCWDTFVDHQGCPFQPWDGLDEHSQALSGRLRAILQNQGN

[3] = target: DNA dC->dU-editing enzyme APOBEC-3G (Homo sapiens, UniProt Q9HC16); assay: Dose Response confirmation of small molecule APOBEC3G DNA Deaminase Inhibitors via a fluorescence-based single-stranded DNA deaminase assay. [Related pubchem assays (depositor defined):AID493012, AID493028]; assay type: functional
[4] = target: DNA (cytosine-5)-methyltransferase 1 (Homo sapiens, UniProt P26358); assay: DNMT1 methyltransferase inhibitors, confirmation, biochemical, fluorescent molecular beacon (AID 602386); assay type: functional
[5] = target: T2, Small ubiquitin-related modifier 1 (Homo sapiens, UniProt P63165); assay: inhibitors of SUMO1 peptide binding, dose response, biochemical, fluorescence polarization, uHTS hits (AID 624382); assay type: functional; details: read-out: IC50_Mean
T2 sequence (P63165 whole entry): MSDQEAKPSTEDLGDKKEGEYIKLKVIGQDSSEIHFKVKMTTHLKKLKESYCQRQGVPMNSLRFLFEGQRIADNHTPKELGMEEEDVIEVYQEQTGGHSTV

[6] = target: T2, Small ubiquitin-related modifier 1; assay: inhibitors of SUMO1 partner interactions, dose response, biochemical, FRET (AID 624383); assay type: functional; details: read-out: IC50_Mean
[7] = target: T1, Voltage-gated N-type calcium channel alpha-1B subunit/Amyloid beta A4 precursor protein-binding family A member 1; assay type: protein assay; remark: listed apart in the source
[8] = target: T3, Apoptotic protease-activating factor 1 (Homo sapiens, UniProt O14727); assay: activation of Apaf-1 mediated apoptosis – fluorescent, uHTS hits, dose response (AID 588554); assay type: functional
T3 sequence (O14727 whole entry): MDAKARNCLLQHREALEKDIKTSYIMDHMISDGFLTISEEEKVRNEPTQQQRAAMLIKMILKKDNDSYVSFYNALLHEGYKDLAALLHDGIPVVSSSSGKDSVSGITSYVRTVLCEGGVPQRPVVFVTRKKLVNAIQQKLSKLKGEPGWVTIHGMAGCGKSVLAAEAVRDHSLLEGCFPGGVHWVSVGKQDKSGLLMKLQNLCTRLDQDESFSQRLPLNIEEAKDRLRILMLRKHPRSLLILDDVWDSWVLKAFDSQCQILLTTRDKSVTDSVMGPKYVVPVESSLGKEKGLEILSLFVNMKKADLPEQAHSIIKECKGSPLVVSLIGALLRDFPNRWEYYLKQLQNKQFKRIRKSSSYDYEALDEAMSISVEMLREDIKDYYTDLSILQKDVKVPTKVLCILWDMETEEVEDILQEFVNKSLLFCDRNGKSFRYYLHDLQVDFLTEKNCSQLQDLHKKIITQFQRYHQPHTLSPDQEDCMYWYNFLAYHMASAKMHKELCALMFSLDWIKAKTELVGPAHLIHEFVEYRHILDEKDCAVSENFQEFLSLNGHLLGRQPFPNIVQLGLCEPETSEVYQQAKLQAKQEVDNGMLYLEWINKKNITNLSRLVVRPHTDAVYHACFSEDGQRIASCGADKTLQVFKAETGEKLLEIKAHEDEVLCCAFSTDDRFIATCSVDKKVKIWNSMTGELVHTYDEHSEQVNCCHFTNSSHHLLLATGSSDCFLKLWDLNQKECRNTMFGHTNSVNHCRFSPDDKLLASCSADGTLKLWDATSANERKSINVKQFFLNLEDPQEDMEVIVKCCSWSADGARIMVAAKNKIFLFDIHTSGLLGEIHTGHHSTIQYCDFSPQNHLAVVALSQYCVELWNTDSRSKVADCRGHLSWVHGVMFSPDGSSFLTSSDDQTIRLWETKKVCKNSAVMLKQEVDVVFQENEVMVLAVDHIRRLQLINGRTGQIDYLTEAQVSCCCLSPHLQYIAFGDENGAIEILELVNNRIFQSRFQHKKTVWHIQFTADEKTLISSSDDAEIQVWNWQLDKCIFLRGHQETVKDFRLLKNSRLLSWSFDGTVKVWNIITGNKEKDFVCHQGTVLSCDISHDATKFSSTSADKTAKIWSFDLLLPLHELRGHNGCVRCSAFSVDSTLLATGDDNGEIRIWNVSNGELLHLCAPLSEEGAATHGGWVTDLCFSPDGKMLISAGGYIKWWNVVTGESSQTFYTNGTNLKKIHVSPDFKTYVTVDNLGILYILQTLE

[9] = target: Induced myeloid leukemia cell differentiation protein Mcl-1 (Homo sapiens, UniProt Q07820); assay type: functional
[10] = target: T4, Zinc finger protein mex-5 (Caenorhabditis elegans, UniProt Q9XUB2); assay: MEX-5/TCR-2 RNA interaction inhibitors, dose response, biochemical, C. elegans, fluorescence polarization (AID 1960)
T4 sequence (Q9XUB2 whole entry): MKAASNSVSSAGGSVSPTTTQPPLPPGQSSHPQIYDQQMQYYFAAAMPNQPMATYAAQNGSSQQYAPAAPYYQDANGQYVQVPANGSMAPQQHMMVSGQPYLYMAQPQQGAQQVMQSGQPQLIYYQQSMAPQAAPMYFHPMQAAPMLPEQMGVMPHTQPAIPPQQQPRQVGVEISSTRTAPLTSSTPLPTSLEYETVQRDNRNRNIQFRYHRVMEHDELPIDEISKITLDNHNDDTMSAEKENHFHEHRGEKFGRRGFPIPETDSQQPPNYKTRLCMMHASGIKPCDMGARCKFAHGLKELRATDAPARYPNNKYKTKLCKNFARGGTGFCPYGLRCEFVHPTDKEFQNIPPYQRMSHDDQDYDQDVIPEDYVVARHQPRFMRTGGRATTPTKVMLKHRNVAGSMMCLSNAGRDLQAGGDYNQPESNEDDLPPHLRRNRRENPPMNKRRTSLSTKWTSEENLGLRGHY

[11] = target: T5, Intestinal-type alkaline phosphatase (Mus musculus, UniProt P24822); assay: PubChem AID 488785; assay type: functional
T5 sequence (P24822 whole entry): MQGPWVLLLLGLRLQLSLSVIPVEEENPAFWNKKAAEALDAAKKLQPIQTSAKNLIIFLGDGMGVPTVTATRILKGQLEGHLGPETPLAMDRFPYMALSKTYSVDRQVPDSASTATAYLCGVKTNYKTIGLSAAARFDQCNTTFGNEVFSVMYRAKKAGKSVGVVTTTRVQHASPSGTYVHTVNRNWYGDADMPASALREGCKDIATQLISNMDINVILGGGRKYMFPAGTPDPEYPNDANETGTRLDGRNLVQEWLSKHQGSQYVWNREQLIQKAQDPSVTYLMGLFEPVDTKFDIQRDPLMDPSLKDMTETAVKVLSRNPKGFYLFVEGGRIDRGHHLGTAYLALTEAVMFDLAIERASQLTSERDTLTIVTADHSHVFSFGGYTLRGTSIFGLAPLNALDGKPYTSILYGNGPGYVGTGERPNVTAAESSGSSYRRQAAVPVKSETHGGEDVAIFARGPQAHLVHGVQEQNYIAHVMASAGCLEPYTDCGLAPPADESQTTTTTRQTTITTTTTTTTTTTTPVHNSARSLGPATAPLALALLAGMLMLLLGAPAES

[12] = target: T6, Alkaline phosphatase, tissue-nonspecific isozyme (Homo sapiens, UniProt P05186); assay: human TNAP enzyme inhibitors, SAR follow-up, biochemical, luminescent, dose response (AID 1056)
T6 sequence (P05186 whole entry): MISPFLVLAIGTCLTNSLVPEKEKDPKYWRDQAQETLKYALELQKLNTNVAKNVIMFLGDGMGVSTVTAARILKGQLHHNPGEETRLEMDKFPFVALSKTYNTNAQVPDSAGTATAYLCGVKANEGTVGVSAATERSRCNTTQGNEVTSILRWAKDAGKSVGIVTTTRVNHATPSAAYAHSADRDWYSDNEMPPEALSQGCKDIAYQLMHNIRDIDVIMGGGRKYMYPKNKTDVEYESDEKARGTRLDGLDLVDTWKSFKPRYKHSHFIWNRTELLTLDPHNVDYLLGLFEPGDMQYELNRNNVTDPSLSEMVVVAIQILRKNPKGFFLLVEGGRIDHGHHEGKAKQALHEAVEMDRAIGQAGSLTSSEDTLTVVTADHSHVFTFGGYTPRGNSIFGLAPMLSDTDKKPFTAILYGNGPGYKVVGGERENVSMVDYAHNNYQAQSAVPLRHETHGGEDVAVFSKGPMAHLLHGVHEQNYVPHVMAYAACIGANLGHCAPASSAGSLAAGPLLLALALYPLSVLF

[13] = target: T6, Alkaline phosphatase, tissue-nonspecific isozyme; assay: TNAP enzyme activators, dose response, selectivity assay for human IAP activator project, biochemical, TNAP isozyme, human IAP uHTS hits (AID 488886); assay type: functional;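 note: potency of compounds raising TNAP activity as a selectivity check on IAP activators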
[14] = target: T7, Intestinal-type alkaline phosphatase (Homo sapiens, UniProt P09923); assay: human IAP inhibitors, dose response, biochemical, luminescent, uHTS hits, set 2 (AID 488793); assay type: functional
T7 sequence (P09923 whole entry): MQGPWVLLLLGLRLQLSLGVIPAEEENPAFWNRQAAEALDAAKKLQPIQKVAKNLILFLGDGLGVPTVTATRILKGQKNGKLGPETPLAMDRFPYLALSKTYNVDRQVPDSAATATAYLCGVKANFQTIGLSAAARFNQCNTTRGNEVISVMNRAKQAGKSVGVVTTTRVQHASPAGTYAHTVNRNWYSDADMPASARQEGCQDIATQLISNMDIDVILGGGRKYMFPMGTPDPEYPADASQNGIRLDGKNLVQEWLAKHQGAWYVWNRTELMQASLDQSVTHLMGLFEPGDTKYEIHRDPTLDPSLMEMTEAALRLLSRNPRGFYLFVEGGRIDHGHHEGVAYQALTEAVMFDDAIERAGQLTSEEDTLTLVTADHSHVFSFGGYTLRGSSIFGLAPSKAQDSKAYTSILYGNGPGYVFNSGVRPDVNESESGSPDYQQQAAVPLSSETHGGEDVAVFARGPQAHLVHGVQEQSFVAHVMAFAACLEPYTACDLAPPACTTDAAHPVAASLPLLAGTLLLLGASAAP

[15] = target: T7, Intestinal-type alkaline phosphatase; assay: activation of human intestinal alkaline phosphatase – biochemical, dose response (AID 488873); assay type: functional
[16] = target: T8, RNA-binding protein pos-1 (Caenorhabditis elegans, UniProt G5EF15); assay: inhibitors of POS-1/mex-3 RNA binding, dose response, biochemical, fluorescence polarization (AID 1964);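 note: purified POS-1 fused to maltose binding protein made in E. coli; potency of compounds blocking POS-1 binding to fluorescent RNA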
T8 sequence (G5EF15 whole entry): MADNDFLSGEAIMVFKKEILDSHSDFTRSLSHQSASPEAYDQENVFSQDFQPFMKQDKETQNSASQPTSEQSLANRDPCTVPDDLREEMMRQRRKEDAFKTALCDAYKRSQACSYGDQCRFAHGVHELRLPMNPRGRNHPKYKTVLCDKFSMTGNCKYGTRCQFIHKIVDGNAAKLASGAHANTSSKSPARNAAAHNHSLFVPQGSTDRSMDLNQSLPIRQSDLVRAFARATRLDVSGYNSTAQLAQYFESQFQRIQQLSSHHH

[17] = target: T5, Intestinal-type alkaline phosphatase; assay: PubChem AID 488874; assay type: functional
[18] = target: T7, Intestinal-type alkaline phosphatase; assay: Dose Response confirmation of uHTS hits from a small molecule inhibitors of human intestinal alkaline phosphatase via a luminescent assay. [Related pubchem assays (depositor defined):AID2544, AID2574]; assay type: functional
[19] = target: T6, Alkaline phosphatase, tissue-nonspecific isozyme; assay: TNAP enzyme inhibition by screening hits, dose response, selectivity assay for mouse IAP inhibitor project, biochemical, human TNAP, uHTS hits (AID 488906); assay type: functional
[20] = target: Alkaline phosphatase, placental type (Homo sapiens, UniProt P05187); assay: PLAP enzyme inhibitors, confirmation, biochemical, luminescence (AID 1512); assay type: functional

AC50 (Cytochrome P450 2D6): inconclusive
AC50 (Cytochrome P450 2C19): 0.631 µM (inconclusive)
AC50 (Cytochrome P450 2C9): 1.41 µM (inconclusive)
Structure (SMILES): CCCOc1ccc(/C=C/C(=O)Nc2ccc([N+](=O)[O-])cc2C)cc1

Structure (SMILES): C=C(C)C(=O)Nc1cccc(C2=NOC3(C2)C[C@@H](C(N)=O)N(C(=O)/C=C/C=C/C)C3)c1 (stereo partly drawn)
IC50 [1]: 34.3 µM (active)
IC50 [2]: > 100 µM (inactive)
IC50 [3]: 3.41 µM (active)
IC50 [4]: 3.25 µM (active)
IC50 [5]: > 66.6 µM (inactive)
IC50 [6]: 1.72 µM (active)
IC50 [7]: 10 µM (active)
EC50 [8]: 1.17 µM (active)
IC50 [9]: 2.3 µM (active)

EC50 [10]: > 300 µM (not active)
IC50 [11]: 1.53 µM (active)
IC50 [12]: > 100 µM (inactive)
EC50 [13]: > 100 µM (inactive)
IC50 [14]: 1.29 µM (active)
EC50 [15]: > 100 µM (inactive)
EC50 [16]: > 300 µM (not active)
IC50 [17]: 5.83 µM (active)
IC50 [18]: 1.76 µM (active)
IC50 [19]: 25.8 µM (active)
IC50 [20]: 5.81 µM (active)
Structure (SMILES): CNc1nnc(-c2cc3ccccc3oc2=O)s1
